Assay results: the kinase profiling compilation of Christmann-Franck et al. (2016)

Columns and labels:
BMX (human) = BMX (human) (UniProt P51813); test: Caliper, Mobility shift assay off-chip
CDC42BPA (human) = CDC42BPA (human) (UniProt Q5VT25); test: Caliper, Mobility shift assay off-chip
CSNK1G2 (human) = CSNK1G2 (human) (UniProt P78368); test: Caliper, Mobility shift assay off-chip
EPHB3 (human) = EPHB3 (human) (UniProt P54753); test: Caliper, Mobility shift assay off-chip
KIT (human) = KIT (human) (UniProt P10721); test: Caliper, Mobility shift assay off-chip
Chain of KIT (human) (P10721 whole entry, looked up): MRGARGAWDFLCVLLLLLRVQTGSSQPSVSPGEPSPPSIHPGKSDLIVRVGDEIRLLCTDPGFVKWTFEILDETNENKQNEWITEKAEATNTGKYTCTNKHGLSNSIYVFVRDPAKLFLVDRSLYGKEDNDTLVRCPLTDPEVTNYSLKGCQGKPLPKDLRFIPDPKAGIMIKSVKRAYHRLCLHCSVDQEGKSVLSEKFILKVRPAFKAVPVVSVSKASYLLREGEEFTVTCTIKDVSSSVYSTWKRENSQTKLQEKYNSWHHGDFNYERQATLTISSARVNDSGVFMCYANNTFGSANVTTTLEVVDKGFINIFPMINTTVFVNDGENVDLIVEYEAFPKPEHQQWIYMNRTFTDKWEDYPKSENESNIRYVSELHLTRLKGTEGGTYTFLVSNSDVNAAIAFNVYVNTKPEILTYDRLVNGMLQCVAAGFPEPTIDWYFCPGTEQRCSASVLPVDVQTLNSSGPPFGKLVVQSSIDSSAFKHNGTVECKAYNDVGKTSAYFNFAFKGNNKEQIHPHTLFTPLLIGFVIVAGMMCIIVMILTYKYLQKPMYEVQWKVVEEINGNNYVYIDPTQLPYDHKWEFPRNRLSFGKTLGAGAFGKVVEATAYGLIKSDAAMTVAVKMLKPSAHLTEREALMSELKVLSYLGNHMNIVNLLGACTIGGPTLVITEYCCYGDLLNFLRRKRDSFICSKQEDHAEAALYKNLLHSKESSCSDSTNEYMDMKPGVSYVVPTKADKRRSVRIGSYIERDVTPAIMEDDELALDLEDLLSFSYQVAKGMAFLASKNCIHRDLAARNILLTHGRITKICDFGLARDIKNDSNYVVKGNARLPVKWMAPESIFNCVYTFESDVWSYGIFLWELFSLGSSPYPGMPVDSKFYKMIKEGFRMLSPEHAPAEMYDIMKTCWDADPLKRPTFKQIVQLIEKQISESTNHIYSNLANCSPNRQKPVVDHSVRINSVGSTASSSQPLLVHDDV

MARK1 (human) = MARK1 (human) (UniProt Q9P0L2); test: Caliper, Mobility shift assay off-chip
MET (human) = MET (human) (UniProt P08581); test: Caliper, Mobility shift assay off-chip
YES1 (human) = YES1 (human) (UniProt P07947); test: Caliper, Mobility shift assay off-chip
BMPR1A (human) = BMPR1A (human) (UniProt P36894); test: ELISA
Chain of BMPR1A (human) (P36894 whole entry, looked up): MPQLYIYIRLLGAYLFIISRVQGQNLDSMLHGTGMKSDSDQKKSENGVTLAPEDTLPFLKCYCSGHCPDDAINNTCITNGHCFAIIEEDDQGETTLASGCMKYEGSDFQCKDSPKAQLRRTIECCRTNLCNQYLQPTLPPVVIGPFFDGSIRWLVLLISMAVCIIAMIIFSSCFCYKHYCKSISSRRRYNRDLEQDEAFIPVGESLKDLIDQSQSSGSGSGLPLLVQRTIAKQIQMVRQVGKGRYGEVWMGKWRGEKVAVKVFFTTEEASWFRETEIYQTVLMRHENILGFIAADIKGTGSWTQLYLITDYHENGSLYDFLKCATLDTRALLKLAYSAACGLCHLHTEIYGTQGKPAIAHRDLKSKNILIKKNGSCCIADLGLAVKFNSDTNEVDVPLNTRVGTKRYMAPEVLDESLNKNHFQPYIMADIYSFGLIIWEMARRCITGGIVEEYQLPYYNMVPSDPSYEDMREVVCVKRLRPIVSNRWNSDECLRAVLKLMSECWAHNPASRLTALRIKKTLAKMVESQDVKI

LIMK1 (human) = LIMK1 (human) (UniProt P53667); test: ELISA
MAP2K1 (human) = MAP2K1 (human) (UniProt Q02750); test: ELISA
Chain of MAP2K1 (human) (Q02750 whole entry, looked up): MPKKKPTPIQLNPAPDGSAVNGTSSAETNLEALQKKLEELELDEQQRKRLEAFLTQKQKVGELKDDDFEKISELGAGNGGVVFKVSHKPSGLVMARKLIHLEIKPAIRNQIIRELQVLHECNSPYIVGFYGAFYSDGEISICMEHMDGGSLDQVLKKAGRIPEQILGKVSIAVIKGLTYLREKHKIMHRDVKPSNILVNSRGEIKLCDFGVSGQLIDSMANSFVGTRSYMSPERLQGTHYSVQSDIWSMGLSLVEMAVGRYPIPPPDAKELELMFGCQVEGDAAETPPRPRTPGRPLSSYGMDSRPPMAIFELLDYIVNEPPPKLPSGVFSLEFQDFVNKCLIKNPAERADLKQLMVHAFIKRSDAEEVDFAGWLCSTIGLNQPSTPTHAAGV

MAP2K2 (human) = MAP2K2 (human) (UniProt P36507); test: ELISA
MAP2K3 (human) = MAP2K3 (human) (UniProt P46734); test: ELISA
MAP2K4 (human) = MAP2K4 (human) (UniProt P45985); test: ELISA
MAP2K5 (human) = MAP2K5 (human) (UniProt Q13163); test: ELISA
MAP2K6 (human) = MAP2K6 (human) (UniProt P52564); test: ELISA
MAP2K7 (human) = MAP2K7 (human) (UniProt O14733); test: ELISA
MAP3K1 (human) = MAP3K1 (human) (UniProt Q13233); test: ELISA
MAP3K10 (human) = MAP3K10 (human) (UniProt Q02779); test: ELISA
Chain of MAP3K10 (human) (Q02779 whole entry, looked up): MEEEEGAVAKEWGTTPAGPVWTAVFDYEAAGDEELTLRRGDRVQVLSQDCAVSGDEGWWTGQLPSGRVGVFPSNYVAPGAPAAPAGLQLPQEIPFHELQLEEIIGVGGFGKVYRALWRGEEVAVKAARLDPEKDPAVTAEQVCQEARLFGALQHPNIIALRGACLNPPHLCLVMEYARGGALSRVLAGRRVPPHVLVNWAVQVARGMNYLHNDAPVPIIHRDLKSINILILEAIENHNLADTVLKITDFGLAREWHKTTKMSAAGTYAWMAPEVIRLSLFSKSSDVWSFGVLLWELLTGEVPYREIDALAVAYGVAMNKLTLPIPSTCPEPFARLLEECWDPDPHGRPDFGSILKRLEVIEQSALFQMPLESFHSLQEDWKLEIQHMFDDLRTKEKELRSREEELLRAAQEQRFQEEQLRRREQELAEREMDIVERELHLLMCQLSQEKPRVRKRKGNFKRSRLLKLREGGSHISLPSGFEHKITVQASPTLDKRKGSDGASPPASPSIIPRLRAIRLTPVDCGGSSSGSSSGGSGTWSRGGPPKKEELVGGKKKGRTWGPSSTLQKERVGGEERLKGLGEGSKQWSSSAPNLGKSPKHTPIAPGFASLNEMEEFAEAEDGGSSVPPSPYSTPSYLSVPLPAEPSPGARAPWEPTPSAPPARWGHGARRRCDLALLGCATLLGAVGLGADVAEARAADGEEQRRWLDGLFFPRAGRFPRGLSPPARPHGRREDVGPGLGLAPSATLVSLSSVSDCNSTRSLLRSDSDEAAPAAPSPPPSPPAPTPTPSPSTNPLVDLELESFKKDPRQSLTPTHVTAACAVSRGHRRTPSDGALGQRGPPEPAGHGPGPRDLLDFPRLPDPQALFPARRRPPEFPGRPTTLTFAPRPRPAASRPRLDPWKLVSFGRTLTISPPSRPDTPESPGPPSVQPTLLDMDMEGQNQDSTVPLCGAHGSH

MAP3K11 (human) = MAP3K11 (human) (UniProt Q16584); test: ELISA
MAP3K12 (human) = MAP3K12 (human) (UniProt Q12852); test: ELISA
MAP3K2 (human) = MAP3K2 (human) (UniProt Q9Y2U5); test: ELISA
MAP3K3 (human) = MAP3K3 (human) (UniProt Q99759); test: ELISA
MAP3K4 (human) = MAP3K4 (human) (UniProt Q9Y6R4); test: ELISA
MAP3K5 (human) = MAP3K5 (human) (UniProt Q99683); test: ELISA
MAP3K8 (human) = MAP3K8 (human) (UniProt P41279); test: ELISA
MAP3K9 (human) = MAP3K9 (human) (UniProt P80192); test: ELISA
Chain of MAP3K9 (human) (P80192 whole entry, looked up): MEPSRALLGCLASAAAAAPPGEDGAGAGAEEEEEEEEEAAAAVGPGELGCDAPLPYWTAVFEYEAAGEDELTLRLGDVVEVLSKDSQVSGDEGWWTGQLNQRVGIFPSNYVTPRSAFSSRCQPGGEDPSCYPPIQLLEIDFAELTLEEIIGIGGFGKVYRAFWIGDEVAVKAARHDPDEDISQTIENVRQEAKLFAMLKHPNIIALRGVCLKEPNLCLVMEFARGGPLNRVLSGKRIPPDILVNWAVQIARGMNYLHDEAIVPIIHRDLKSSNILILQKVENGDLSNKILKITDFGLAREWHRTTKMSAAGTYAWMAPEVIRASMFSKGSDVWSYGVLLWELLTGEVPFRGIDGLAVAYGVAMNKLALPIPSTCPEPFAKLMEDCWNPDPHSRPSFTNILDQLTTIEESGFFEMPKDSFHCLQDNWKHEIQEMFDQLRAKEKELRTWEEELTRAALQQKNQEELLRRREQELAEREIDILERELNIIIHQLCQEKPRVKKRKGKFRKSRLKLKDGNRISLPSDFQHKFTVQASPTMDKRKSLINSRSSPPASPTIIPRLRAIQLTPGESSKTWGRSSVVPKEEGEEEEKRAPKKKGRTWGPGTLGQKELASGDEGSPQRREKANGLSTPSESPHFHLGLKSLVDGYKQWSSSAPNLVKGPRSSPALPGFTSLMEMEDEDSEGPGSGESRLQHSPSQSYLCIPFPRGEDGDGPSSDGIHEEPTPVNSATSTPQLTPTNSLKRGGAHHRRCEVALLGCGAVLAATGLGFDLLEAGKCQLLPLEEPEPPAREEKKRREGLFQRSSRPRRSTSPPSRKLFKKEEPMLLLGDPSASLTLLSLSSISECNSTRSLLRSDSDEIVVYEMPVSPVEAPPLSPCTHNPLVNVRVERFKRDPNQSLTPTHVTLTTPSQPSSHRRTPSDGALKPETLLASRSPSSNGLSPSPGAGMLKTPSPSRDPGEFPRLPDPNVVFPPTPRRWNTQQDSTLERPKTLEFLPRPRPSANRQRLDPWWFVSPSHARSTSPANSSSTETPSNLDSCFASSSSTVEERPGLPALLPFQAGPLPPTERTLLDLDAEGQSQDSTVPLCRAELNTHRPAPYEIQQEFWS

MOS (human) = MOS (human) (UniProt P00540); test: ELISA
PLK4 (human) = PLK4 (human) (UniProt O00444); test: ELISA
RAF1 (human) = RAF1 (human) (UniProt P04049); test: ELISA
STK11 (human) = STK11 (human) (UniProt Q15831); test: ELISA
TTK (human) = TTK (human) (UniProt P33981); test: ELISA

Chain of CSNK1G2 (human) (P78368 whole entry, looked up): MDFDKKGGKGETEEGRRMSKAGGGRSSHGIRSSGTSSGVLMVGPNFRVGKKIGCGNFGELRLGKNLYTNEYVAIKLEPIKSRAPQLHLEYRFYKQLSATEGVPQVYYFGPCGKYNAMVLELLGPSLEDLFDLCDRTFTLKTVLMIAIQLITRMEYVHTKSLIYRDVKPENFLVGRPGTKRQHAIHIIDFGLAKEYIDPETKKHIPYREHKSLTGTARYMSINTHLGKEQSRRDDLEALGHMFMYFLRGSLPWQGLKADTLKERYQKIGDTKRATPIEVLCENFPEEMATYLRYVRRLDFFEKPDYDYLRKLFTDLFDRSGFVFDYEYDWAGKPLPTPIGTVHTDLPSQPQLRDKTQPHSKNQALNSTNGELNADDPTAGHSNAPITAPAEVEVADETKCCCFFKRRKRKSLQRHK
Chain of BMX (human) (P51813 whole entry, looked up): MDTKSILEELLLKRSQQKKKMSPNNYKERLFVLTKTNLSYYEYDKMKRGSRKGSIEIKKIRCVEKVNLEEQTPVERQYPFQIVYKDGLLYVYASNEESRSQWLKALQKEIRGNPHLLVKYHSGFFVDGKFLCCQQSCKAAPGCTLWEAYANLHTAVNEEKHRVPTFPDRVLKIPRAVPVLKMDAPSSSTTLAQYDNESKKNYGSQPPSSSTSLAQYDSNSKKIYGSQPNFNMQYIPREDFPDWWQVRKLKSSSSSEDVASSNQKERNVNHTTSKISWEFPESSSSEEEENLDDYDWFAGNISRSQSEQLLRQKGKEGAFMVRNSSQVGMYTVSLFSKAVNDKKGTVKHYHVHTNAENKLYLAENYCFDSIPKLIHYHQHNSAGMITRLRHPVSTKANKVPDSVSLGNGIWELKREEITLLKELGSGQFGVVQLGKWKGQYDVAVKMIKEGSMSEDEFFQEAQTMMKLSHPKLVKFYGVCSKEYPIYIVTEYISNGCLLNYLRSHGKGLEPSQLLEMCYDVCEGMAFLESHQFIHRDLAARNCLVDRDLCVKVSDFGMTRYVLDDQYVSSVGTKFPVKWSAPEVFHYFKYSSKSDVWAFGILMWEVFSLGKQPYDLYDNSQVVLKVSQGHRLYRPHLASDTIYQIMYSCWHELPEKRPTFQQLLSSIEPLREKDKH

`CNC(=O)c1cc(Oc2ccc(NC(=O)Nc3ccc(Cl)c(C(F)(F)F)c3)cc2)ccn1` showed an inhibition (BMX (human); compound 0.02 µM) of 0.1%, an inhibition (BMX (human); compound 0.2 µM) of 10.4% and an inhibition (CDC42BPA (human); compound 0.02 µM) of -0.8%. It also gave an inhibition (CDC42BPA (human); compound 0.2 µM) of 8.1%, an inhibition (CSNK1G2 (human); compound 0.02 µM) of -18.7% and an inhibition (CSNK1G2 (human); compound 0.2 µM) of -0.7%. For the same compound, the inhibition (EPHB3 (human); compound 0.02 µM) was -2.4%, the inhibition (EPHB3 (human); compound 0.2 µM) was 0.9% and the inhibition (KIT (human); compound 0.02 µM) was 32.9%. The inhibition (KIT (human); compound 0.2 µM) was 89.8%, the inhibition (MARK1 (human); compound 0.02 µM) was -0.8% and the inhibition (MARK1 (human); compound 0.2 µM) was 0.9%. For the same compound, the inhibition (MET (human); compound 0.02 µM) was -12.2%, the inhibition (MET (human); compound 0.2 µM) was 4.4% and the inhibition (YES1 (human); compound 0.02 µM) was -1.9%. The inhibition (YES1 (human); compound 0.2 µM) was 17.7%, the inhibition (BMPR1A (human); compound 0.02 µM) was 6.9% and the inhibition (BMPR1A (human); compound 0.2 µM) was 7%. It also gave an inhibition (LIMK1 (human); compound 0.02 µM) of 2.6%, an inhibition (LIMK1 (human); compound 0.2 µM) of 13% and an inhibition (MAP2K1 (human); compound 0.02 µM) of 13.7%. It also gave an inhibition (MAP2K1 (human); compound 0.2 µM) of 17.4%, an inhibition (MAP2K2 (human); compound 0.02 µM) of -1.8% and an inhibition (MAP2K2 (human); compound 0.2 µM) of -2.7%. For the same compound, the inhibition (MAP2K3 (human); compound 0.02 µM) was 9.8%, the inhibition (MAP2K3 (human); compound 0.2 µM) was 58.5% and the inhibition (MAP2K4 (human); compound 0.02 µM) was 1.7%. The inhibition (MAP2K4 (human); compound 0.2 µM) was 3.6%, the inhibition (MAP2K5 (human); compound 0.02 µM) was 3.6% and the inhibition (MAP2K5 (human); compound 0.2 µM) was 6.2%. It also gave an inhibition (MAP2K6 (human); compound 0.02 µM) of 13.6%, an inhibition (MAP2K6 (human); compound 0.2 µM) of 64.2% and an inhibition (MAP2K7 (human); compound 0.02 µM) of -0.7%. It also gave an inhibition (MAP2K7 (human); compound 0.2 µM) of 1.1%, an inhibition (MAP3K1 (human); compound 0.02 µM) of 0.7% and an inhibition (MAP3K1 (human); compound 0.2 µM) of -0.2%. For the same compound, the inhibition (MAP3K10 (human); compound 0.02 µM) was -1.8%, the inhibition (MAP3K10 (human); compound 0.2 µM) was -2.3% and the inhibition (MAP3K11 (human); compound 0.02 µM) was 2.4%. For the same compound, the inhibition (MAP3K11 (human); compound 0.2 µM) was -2.6%, the inhibition (MAP3K12 (human); compound 0.02 µM) was 4.1% and the inhibition (MAP3K12 (human); compound 0.2 µM) was 2.7%. The inhibition (MAP3K2 (human); compound 0.02 µM) was 5.2%, the inhibition (MAP3K2 (human); compound 0.2 µM) was 5.2% and the inhibition (MAP3K3 (human); compound 0.02 µM) was -2.1%. It also gave an inhibition (MAP3K3 (human); compound 0.2 µM) of -3%, an inhibition (MAP3K4 (human); compound 0.02 µM) of 8.5% and an inhibition (MAP3K4 (human); compound 0.2 µM) of 4.4%. The inhibition (MAP3K5 (human); compound 0.02 µM) was 9.6%, the inhibition (MAP3K5 (human); compound 0.2 µM) was 7.4% and the inhibition (MAP3K8 (human); compound 0.02 µM) was 0.5%. It also gave an inhibition (MAP3K8 (human); compound 0.2 µM) of 0.2%, an inhibition (MAP3K9 (human); compound 0.02 µM) of 8.6% and an inhibition (MAP3K9 (human); compound 0.2 µM) of 10.1%. For the same compound, the inhibition (MOS (human); compound 0.02 µM) was 3%, the inhibition (MOS (human); compound 0.2 µM) was 0.5% and the inhibition (PLK4 (human); compound 0.02 µM) was 10.5%. For the same compound, the inhibition (PLK4 (human); compound 0.2 µM) was 13.4%, the inhibition (RAF1 (human); compound 0.02 µM) was 41.7% and the inhibition (RAF1 (human); compound 0.2 µM) was 88.1%. For the same compound, the inhibition (STK11 (human); compound 0.02 µM) was 6.4%, the inhibition (STK11 (human); compound 0.2 µM) was 6.2% and the inhibition (TTK (human); compound 0.02 µM) was -7.6%. It also gave an inhibition (TTK (human); compound 0.2 µM) of -4.3%.
